Source: patent publication US12516026B2, “Cabozantinib compositions and methods of use” (priority 2023, dated 2026)

How the values were obtained:
[1] = Example 25: impurity profile of cabozantinib lauryl sulfate lots stored at 40° C. and 75% relative humidity; type: physicochemical; conditions: 40° C./75% RH
[2] = single dose, healthy human subjects, cited from earlier work

Row | Related Substance 1 Int2-Imp1 ([1]; 0 months) | Related Substance 1 Int3-Imp5 ([1]; 0 months) | Related Substance 1 Total imp. ([1]; 0 months) | Related Substance 1 Unidentified imp ([1]; 0 months) | Related Substance 2 Int1 ([1]; 0 months) | Water Content ([1]; 0 months) | Related Substance 1 Int2-Imp1 ([1]; 1 month) | Related Substance 1 Int3-Imp5 ([1]; 1 month) | Related Substance 1 Total imp. ([1]; 1 month) | Related Substance 2 Int1 ([1]; 1 month) | Related Substance 1 Int2-Imp1 ([1]; 3 months) | Related Substance 1 Int3-Imp5 ([1]; 3 months) | Related Substance 1 Total imp. ([1]; 3 months) | Related Substance 2 Int1 ([1]; 3 months) | Water Content ([1]; 3 months) | Molecule | also measured
1 | 0.12% | <0.05% | 0.20% | 0.06% | 2.77 ppm | 0.19% | 0.07% | <0.05% | 0.09% | 6.28 ppm | 0.06% | <0.05% | 0.11% | 6.50 ppm | 0.10% | CCCCCCCCCCCCOS(=O)(=O)O.COc1cc2nccc(Oc3ccc(NC(=O)C4(C(=O)Nc5ccc(F)cc5)CC4)cc3)c2cc1OC [Example 25B, cabozantinib lauryl sulfate] | Related Substance 1 Int3-Imp2 ([1]; 3 months): <0.05%; Related Substance 1 Int2-Imp1 ([1]; 6 months): 0.10%; Related Substance 1 Int3-Imp5 ([1]; 6 months): <0.05%; Related Substance 1 Int3-Imp7 ([1]; 6 months): <0.05%; Related Substance 1 Total imp. ([1]; 6 months): 0.10%; Related Substance 1 Unidentified imp ([1]; 6 months): <0.05%; Related Substance 2 Int1 ([1]; 6 months): 7.34 ppm
2 | 0.10% | 0.05% | 0.24% | <0.05% | 5.22 ppm | 0.31% | 0.11% | <0.05% | 0.24% | 5.98 ppm | 0.13% | <0.05% | 0.29% | 6.99 ppm | 0.05% | CCCCCCCCCCCCOS(=O)(=O)O.COc1cc2nccc(Oc3ccc(NC(=O)C4(C(=O)Nc5ccc(F)cc5)CC4)cc3)c2cc1OC [Example 25C, cabozantinib lauryl sulfate] | Related Substance 1 Int3-Imp7 ([1]; 0 months): <0.05%; Related Substance 1 Int3-Imp7 ([1]; 1 month): 0.05%; Related Substance 1 Unidentified imp ([1]; 1 month): <0.05%; Water Content ([1]; 1 month): 0.29%; Related Substance 1 Int2-Imp1 ([1]; 2 months): 0.13%; Related Substance 1 Int3-Imp5 ([1]; 2 months): <0.05%; Related Substance 1 Int3-Imp7 ([1]; 2 months): <0.05%; Related Substance 1 Total imp. ([1]; 2 months): 0.21%; Related Substance 2 Int1 ([1]; 2 months): 6.07 ppm; Water Content ([1]; 2 months): 0.068%; Related Substance 1 Int3-Imp7 ([1]; 3 months): <0.05%; Related Substance 1 Unidentified imp ([1]; 3 months): <0.05%
3 |  |  |  |  |  |  |  |  |  |  |  |  |  |  |  | ^14C-cabozantinib | radioactivity recovered in feces ([2]; 48-day collection period): approximately 54%; radioactivity recovered in urine ([2]; 48-day collection period): ~27%; total administered radioactivity recovered ([2]; within a 48-day collection period): approximately 81%
